From ChEMBL document CHEMBL1201862, “PubChem BioAssay data set” (2004)
Calls of active or inactive are those of the source.

Assays:
Melanocortin receptor 4 = Melanocortin receptor 4 (Homo sapiens, UniProt P32245); assay type: functional, cell-based;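 note: Cell-based assay with luminescence read-out, confirmatory dose-response testing for agonist activity of biased ligands at MC4R; human U2OS cells with tagged receptor and beta-arrestin; potency of agonists that increase receptor coupling to beta-arrestin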
[1] = molecular target: T1, Aryl hydrocarbon receptor (Homo sapiens, UniProt P35869); experiment: Luminescence-based cell-based high throughput dose response assay for activators of the Aryl Hydrocarbon Receptor (AHR). [Related pubchem assays: 2796 (Primary screen (AHR activators in singlicate)), 2845 (Confirmation screen (AHR activators in triplicate)), 434939 (Counterscreen (PXR activators in triplicate)), 2804 (Summary (AHR activators))]; assay type: ADME
T1 sequence (P35869 whole entry): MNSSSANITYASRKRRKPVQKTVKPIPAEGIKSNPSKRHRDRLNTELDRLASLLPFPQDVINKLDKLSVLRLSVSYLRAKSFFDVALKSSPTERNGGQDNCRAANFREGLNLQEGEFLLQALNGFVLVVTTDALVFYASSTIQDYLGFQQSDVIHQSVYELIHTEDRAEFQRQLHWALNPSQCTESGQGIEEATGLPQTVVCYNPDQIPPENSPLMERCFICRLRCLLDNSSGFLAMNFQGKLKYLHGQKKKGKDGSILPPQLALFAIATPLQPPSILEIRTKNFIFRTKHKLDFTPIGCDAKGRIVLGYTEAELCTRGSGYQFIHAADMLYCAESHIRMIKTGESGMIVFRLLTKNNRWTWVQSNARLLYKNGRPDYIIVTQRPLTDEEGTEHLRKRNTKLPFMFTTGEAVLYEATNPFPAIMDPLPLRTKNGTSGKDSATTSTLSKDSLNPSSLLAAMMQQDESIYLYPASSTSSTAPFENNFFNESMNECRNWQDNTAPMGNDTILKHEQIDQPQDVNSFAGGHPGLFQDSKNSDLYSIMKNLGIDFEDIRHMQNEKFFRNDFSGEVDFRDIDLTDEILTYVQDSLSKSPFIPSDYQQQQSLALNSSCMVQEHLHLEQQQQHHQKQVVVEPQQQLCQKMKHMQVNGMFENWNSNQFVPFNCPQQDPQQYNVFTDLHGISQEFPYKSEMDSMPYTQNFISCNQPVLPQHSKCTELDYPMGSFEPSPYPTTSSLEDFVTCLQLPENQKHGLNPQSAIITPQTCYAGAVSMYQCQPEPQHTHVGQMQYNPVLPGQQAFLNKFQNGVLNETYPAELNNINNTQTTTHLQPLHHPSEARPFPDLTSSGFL

[2] = molecular target: T2, Replicative DNA helicase DnaB (Mycobacterium tuberculosis, UniProt P9WMR3); experiment: DnaB intein splicing inhibitors, dose response, biochemical, cell-free fluorescence (AID 449749); assay type: functional
T2 sequence (P9WMR3 whole entry): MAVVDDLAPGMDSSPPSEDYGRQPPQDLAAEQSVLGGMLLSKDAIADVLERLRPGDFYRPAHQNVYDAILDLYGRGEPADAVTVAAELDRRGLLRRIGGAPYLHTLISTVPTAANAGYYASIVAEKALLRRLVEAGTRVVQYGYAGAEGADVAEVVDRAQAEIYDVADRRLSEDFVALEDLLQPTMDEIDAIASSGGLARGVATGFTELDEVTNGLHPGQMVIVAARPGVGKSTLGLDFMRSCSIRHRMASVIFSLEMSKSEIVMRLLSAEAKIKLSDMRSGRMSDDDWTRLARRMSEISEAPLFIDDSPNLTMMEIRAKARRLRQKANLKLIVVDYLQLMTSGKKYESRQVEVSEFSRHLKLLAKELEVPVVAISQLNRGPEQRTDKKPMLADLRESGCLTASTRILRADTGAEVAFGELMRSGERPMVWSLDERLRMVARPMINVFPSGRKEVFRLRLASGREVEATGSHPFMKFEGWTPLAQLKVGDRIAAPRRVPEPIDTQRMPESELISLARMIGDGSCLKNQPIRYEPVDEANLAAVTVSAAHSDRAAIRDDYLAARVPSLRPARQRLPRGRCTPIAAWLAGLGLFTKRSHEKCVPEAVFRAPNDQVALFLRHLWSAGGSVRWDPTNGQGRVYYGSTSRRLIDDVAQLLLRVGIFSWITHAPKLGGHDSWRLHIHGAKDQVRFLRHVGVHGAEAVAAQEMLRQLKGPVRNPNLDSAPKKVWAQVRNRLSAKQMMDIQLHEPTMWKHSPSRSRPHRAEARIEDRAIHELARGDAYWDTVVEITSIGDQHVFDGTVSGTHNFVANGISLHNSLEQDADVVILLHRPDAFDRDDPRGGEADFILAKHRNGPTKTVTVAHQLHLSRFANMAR

Protein RecA = molecular target: T3, Protein RecA (Mycobacterium tuberculosis, UniProt P9WHJ3); experiment: Fluorescence Cell-Free Homogeneous Dose Retest to Identify Inhibitors of RecA-Intein Splicing Activity. [Related pubchem assays (depositor defined):AID2097, AID2223, AID489010, AID492950]; assay type: functional
T3 sequence (P9WHJ3 whole entry): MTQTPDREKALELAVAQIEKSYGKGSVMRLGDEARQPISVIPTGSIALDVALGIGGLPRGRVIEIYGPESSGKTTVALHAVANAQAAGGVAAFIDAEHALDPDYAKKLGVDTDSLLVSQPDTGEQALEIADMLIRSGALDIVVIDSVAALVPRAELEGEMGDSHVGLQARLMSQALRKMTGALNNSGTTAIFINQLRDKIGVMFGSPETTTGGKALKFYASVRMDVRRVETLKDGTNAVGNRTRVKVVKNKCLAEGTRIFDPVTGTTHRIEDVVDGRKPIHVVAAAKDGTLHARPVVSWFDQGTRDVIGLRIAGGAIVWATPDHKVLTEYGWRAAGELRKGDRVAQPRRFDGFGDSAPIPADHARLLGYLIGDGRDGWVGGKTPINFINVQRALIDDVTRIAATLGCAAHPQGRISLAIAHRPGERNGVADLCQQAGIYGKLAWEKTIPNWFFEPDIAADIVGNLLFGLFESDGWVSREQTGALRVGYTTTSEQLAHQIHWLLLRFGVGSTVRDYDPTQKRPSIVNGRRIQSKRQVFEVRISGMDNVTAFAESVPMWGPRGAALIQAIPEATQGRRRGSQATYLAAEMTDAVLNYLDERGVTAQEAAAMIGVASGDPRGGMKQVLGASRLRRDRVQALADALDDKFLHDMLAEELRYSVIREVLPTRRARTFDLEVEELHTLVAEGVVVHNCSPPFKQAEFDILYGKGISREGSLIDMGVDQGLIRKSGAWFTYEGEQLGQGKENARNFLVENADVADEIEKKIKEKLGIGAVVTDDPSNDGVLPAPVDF

[3] = molecular target: T4, Mitochondrial peptide methionine sulfoxide reductase (Bos taurus, UniProt P54149); experiment: Absorbance-based biochemical high throughput dose response assay for activators of Methionine sulfoxide reductase A (MsrA).; assay type: functional
T4 sequence (P54149 whole entry): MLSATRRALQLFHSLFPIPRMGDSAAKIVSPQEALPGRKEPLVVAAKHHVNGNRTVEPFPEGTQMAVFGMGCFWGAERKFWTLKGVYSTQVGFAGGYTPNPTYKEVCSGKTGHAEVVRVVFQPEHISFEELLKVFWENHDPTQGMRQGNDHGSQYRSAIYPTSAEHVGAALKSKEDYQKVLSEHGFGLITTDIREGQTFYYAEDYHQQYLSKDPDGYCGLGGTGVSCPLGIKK

[4] = molecular target: T4, Mitochondrial peptide methionine sulfoxide reductase; assay type: functional
Aminopeptidase N = molecular target: T5, Aminopeptidase N (Plasmodium falciparum FcB1/Columbia, UniProt O96935); experiment: malaria alanyl aminopeptidase activity blockers – biochemical, fluorogenic H-Leu-NHMec substrate, 1536-well (AID 1445); design: species or system Plasmodium falciparum 3D7, 3D7
T5 sequence (O96935 whole entry): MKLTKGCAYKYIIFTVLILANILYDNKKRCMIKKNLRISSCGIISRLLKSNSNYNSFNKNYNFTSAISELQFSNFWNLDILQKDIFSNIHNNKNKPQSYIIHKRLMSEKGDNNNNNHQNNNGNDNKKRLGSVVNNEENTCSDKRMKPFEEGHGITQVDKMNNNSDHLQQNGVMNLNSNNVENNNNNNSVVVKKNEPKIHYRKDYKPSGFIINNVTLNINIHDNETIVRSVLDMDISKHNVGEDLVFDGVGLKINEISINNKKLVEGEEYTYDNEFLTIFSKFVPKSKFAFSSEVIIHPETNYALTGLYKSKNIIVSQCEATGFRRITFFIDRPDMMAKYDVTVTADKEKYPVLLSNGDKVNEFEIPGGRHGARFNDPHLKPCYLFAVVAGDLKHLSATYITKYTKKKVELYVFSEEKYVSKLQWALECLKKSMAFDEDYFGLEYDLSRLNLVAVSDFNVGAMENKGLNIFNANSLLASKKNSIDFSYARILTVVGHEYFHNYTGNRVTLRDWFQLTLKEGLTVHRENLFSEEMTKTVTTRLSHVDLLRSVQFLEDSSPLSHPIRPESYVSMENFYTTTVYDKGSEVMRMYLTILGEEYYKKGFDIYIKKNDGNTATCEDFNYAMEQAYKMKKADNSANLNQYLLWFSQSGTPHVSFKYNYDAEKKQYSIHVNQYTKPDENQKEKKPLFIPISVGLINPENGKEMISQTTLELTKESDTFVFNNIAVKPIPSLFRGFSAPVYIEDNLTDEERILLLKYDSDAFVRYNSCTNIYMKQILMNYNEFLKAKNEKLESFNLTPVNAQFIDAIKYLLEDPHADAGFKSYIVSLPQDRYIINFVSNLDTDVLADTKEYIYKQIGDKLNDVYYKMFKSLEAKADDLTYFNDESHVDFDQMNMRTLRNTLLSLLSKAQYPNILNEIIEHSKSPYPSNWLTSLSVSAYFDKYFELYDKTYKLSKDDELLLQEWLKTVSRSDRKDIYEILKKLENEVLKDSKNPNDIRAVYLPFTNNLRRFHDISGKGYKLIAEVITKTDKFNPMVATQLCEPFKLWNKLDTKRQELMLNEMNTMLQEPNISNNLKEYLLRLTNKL

[5] = bead-based luminescence quenchers, dual-tagged ARNT – biochemical, AlphaScreen, cherry-pick, artefact control for ARNT-TACC3 interaction inhibitor project, dose response (AID 651705); assay type: functional;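 note: AlphaScreen bead proximity signal that flags compounds interfering with the detection technology; potency reflects signal decrease which marks the compound as an assay artifact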

Melanocortin receptor 4, sequence (P32245 whole entry): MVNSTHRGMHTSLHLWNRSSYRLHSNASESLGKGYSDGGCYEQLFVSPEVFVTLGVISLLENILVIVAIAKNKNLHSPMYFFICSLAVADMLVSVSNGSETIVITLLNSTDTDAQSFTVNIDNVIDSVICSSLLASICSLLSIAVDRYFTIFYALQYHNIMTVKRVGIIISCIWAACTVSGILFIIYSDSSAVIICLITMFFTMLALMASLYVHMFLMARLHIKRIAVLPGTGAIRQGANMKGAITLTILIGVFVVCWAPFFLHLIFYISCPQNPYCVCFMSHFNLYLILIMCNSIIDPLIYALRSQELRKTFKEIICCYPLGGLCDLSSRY

Structure (SMILES): COc1ccc(NC(=O)Nc2nc(C(N)Cc3ccc(C(F)(F)F)cc3)cs2)cc1 (stereo not drawn)
- EC50 (Melanocortin receptor 4): > 89.2 µM (inactive)

Structure (SMILES): O=C1/C(=N/c2ccc(O)cc2)C(Cl)=C(O)c2ccccc21
- EC50 [1]: > 1.13 µM (active)
- AC50 [2]: 3.36 µM (active)
- EC50 (Protein RecA): 3.48 µM (active)
- EC50 [3]: > 104 µM (inactive)
- IC50 [4]: 155 µM (inactive)

Structure (SMILES): O=C(N/N=C\c1cccc([N+](=O)[O-])c1O)C1COc2ccccc2O1 (stereo not drawn)
- IC50 (Aminopeptidase N): 31.4 µM (active)
- AC50 [5]: 90.6 µM (active)
